From publication PMC6599797, “Functional characterization of three flavonoid glycosyltransferases from Andrographis paniculata” (Royal Society Open Science, 2019)

What was measured:
Format in all cases: biochemical
ApUFGT2 [1] = target: T1, ApUFGT2 (Andrographis paniculata, UniProt A0A8E3S624); assay: UPLC / Q-TOF-MS conversion assay; settings: UDP-glucose 3200 µM, aglycone 320 µM; Tris-HCl pH 8.0, 40 °C, 6 h
T1 construct: gene UGT8
T1 sequence (A0A8E3S624 1-479): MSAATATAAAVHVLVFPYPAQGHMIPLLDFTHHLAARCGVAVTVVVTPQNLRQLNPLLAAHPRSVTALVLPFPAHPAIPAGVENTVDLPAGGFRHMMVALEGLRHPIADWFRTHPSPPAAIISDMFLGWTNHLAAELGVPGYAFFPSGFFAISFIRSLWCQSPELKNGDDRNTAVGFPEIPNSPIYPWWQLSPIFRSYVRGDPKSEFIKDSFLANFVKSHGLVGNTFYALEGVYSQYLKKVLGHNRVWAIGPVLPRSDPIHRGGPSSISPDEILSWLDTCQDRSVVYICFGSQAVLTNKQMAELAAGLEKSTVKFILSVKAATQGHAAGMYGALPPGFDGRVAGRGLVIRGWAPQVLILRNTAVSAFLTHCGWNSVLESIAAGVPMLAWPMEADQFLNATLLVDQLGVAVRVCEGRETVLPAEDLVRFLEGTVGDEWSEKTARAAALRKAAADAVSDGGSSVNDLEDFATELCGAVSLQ

ApUFGT1 [2] = target: T2, ApUFGT1 (Andrographis paniculata, UniProt A0A8E3MB50); assay: UPLC / Q-TOF-MS conversion assay; settings: UDP-glucose 3200 µM, aglycone 320 µM; Tris-HCl pH 8.0, 40 °C, 6 h
T2 construct: gene UGT2
T2 sequence (A0A8E3MB50 1-485): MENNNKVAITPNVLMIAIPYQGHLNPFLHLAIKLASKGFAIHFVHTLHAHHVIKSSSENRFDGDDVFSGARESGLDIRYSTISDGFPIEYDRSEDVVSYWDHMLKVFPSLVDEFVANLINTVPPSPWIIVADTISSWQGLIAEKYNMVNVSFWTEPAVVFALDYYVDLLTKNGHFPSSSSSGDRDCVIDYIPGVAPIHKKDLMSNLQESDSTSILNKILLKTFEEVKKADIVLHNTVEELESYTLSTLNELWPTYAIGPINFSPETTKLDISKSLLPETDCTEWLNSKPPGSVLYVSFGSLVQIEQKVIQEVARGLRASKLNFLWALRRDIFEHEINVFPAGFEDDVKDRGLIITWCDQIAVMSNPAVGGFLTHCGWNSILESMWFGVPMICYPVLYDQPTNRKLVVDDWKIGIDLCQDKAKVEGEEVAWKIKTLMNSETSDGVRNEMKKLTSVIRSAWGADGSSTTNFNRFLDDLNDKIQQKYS

ApUFGT3 [3] = target: T3, ApUFGT3 (Andrographis paniculata, UniProt A0A8E3S6A8); assay: UPLC / Q-TOF-MS conversion assay; settings: UDP-glucose 3200 µM, aglycone 320 µM; Tris-HCl pH 8.0, 40 °C, 6 h
T3 construct: gene UGT4
T3 sequence (A0A8E3S6A8 1-463): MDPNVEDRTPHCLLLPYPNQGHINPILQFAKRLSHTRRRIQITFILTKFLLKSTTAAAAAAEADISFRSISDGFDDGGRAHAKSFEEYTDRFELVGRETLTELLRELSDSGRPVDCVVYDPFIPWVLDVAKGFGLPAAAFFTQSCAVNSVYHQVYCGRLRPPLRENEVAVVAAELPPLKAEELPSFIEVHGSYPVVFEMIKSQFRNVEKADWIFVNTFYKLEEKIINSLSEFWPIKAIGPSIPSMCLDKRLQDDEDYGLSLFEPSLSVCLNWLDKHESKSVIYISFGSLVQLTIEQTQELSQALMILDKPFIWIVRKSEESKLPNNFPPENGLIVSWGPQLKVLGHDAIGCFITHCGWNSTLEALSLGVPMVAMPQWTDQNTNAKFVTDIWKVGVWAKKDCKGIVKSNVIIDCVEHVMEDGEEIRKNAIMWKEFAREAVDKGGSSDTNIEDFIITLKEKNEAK

ApUFGT2 [4] = target: T1, ApUFGT2; assay: UPLC conversion assay; settings: UDP-glucose donor; 50 mM Tris-HCl pH 8.0, 40 °C
ApUFGT3 [5] = target: T3, ApUFGT3; assay: UPLC conversion assay; settings: UDP-glucose donor; 50 mM Tris-HCl pH 8.0, 40 °C
ApUFGT1 [6] = target: T2, ApUFGT1; assay: UPLC conversion assay; settings: UDP-glucose donor; 50 mM Tris-HCl pH 8.0, 40 °C

| SMILES | UPLC / Q-TOF-MS conversion assay (ApUFGT2 [1]) | UPLC / Q-TOF-MS conversion assay (ApUFGT1 [2]) | UPLC / Q-TOF-MS conversion assay (ApUFGT3 [3]) | UPLC conversion assay (ApUFGT2 [4]) | UPLC conversion assay (ApUFGT3 [5]) | UPLC conversion assay (ApUFGT1 [6]) |
| --- | --- | --- | --- | --- | --- | --- |
| O=c1cc(-c2ccc(O)cc2)oc2cc(O)cc(O)c12 [compound 1, apigenin] | Product peak 1c was confirmed as apigetrin, namely, apigenin 7-O-glucoside | Product peak 1c was confirmed as apigetrin, namely, apigenin 7-O-glucoside | Product peak 1c was confirmed as apigetrin, namely, apigenin 7-O-glucoside | – | – | – |
| COc1c(O)cc(O)c2c(=O)cc(-c3ccccc3)oc12 [wogonin] | – | – | – | glycosylation of wogonin catalysed by ApUFGTs | glycosylation of wogonin catalysed by ApUFGTs | glycosylation of wogonin catalysed by ApUFGTs |
